Laboratory results from patent US20090202659A1, “Modulation of Peripheral Clocks in Adipose Tissue” (priority 2005, published 2009).

Key:
[1] = system: adipocyte-differentiated human ASCs; test: Circadian gene expression induction in adipocyte-differentiated human ASCs (qRT-PCR); assay type: cell-based
Text: Human Adipose-Derived Stem Cell (ASCs) Isolation and Expansion. All protocols were reviewed and approved by the Pennington Biomedical Research Center Institutional Research Board (IRB; Baton Rouge, La.) prior to the study. Liposuction aspirates from subcutaneous adipose tissue sites were obtained from female subjects undergoing elective procedures in local plastic surgical offices. Tissues were washed 3-4 times with phosphate-buffered saline (PBS) and suspended in an equal volume of PBS supplemented with 1% bovine serum and 0.1% collagenase type I (Worthington Biochemical Corporation, Lakewood, N.J.) prewarmed to 37° C. The tissue was then placed in a shaking water bath at 37° C. with continuous agitation for 60 min and centrifuged for 5 min at 300-500×g at room temperature. The supernatant, containing mature adipocytes, was aspirated. The pellet was identified as the stromal vascular fraction (SVF). Portions of the SVF were resuspended in cryopreservation medium (10% dimethylsulfoxide, 10% DMEM/F 12 Ham's, 80% fetal bovine serum), frozen at −80° C. in an ethanol-jacketed, closed container, and subsequently stored in liquid nitrogen. Portions of the SVF were used in colony forming unit assays (see below). The remaining cells of the SVF were suspended and plated immediately in T225 flasks in stromal medium (DMEM/F 12 Ham's, 10% fetal bovine serum (Hyclone, Logan, Utah), 100 U penicillin/100 μg streptomycin/0.25 μg Fungizone) at a density of 0.156 ml of tissue digest/sq cm of surface area for expansion and culture. This initial passage of the primary cell culture was referred to as “Passage 0” (P0). Following the first 48 hr of incubation at 37° C. at 5% CO2, the cultures were washed with PBS and maintained in Stromal Media until they achieved 75-90% confluence (approximately 6 days in culture). The cells were passaged by trypsin (0.05%) digestion and plated at a density of 5,000 cells/cm^2 (“Passage 1”). Cell viability and numbers at the time of passage were determined by trypan blue exclusion and hemacytometer cell counts. Cells were passaged repeatedly after achieving a density of 75-90% (approximately 6 days in culture) until Passage 2. […]
Quantitative Real-time RT-PCR (qRT-PCR) for Human ASCs: Total RNA was purified from the ASCs as described above for mouse tissues using TriReagent (Molecular Research Center) according to the manufacturer's specifications. […]

[2] = system: undifferentiated human ASCs; test: Circadian gene expression induction in undifferentiated human ASCs (qRT-PCR); assay type: cell-based; settings: for Rev-erbα and Rev-erbβ expression zenith, time: three donors
Text: Human Adipose-Derived Stem Cell (ASCs) Isolation and Expansion. All protocols were reviewed and approved by the Pennington Biomedical Research Center Institutional Research Board (IRB; Baton Rouge, La.) prior to the study. Liposuction aspirates from subcutaneous adipose tissue sites were obtained from female subjects undergoing elective procedures in local plastic surgical offices. Tissues were washed 3-4 times with phosphate-buffered saline (PBS) and suspended in an equal volume of PBS supplemented with 1% bovine serum and 0.1% collagenase type I (Worthington Biochemical Corporation, Lakewood, N.J.) prewarmed to 37° C. The tissue was then placed in a shaking water bath at 37° C. with continuous agitation for 60 min and centrifuged for 5 min at 300-500×g at room temperature. The supernatant, containing mature adipocytes, was aspirated. The pellet was identified as the stromal vascular fraction (SVF). Portions of the SVF were resuspended in cryopreservation medium (10% dimethylsulfoxide, 10% DMEM/F 12 Ham's, 80% fetal bovine serum), frozen at −80° C. in an ethanol-jacketed, closed container, and subsequently stored in liquid nitrogen. Portions of the SVF were used in colony forming unit assays (see below). The remaining cells of the SVF were suspended and plated immediately in T225 flasks in stromal medium (DMEM/F 12 Ham's, 10% fetal bovine serum (Hyclone, Logan, Utah), 100 U penicillin/100 μg streptomycin/0.25 μg Fungizone) at a density of 0.156 ml of tissue digest/sq cm of surface area for expansion and culture. This initial passage of the primary cell culture was referred to as “Passage 0” (P0). […] The cells were passaged by trypsin (0.05%) digestion and plated at a density of 5,000 cells/cm^2 (“Passage 1”). Cell viability and numbers at the time of passage were determined by trypan blue exclusion and hemacytometer cell counts. Cells were passaged repeatedly after achieving a density of 75-90% (approximately 6 days in culture) until Passage 2.
Circadian Induction: The medium was removed from confluent cultures of undifferentiated or adipocyte-differentiated human ASCs in 6 well plates and replaced with DMEM/Ham's F12 medium and 100 U penicillin/100 μg streptomycin/0.25 μg Fungizone alone or supplemented with one of the following: 30% FBS, 1 μM dexamethasone, or 5 μM rosiglitazone. The ASCs were exposed to the inductive agents for 2 hr. A single plate under each condition was harvested for total RNA after 1 hr of induction. After 2 hr, the medium in the remaining plates was replaced with serum free DMEM/Ham's F12 medium and 100 U penicillin/100 μg streptomycin/0.25 μg Fungizone alone.
Quantitative Real-time RT-PCR (qRT-PCR) for Human ASCs: Total RNA was purified from the ASCs as described above for mouse tissues using TriReagent (Molecular Research Center) according to the manufacturer's specifications. Approximately 2 μg of total RNA was reverse transcribed using Moloney Murine Leukemia Virus Reverse Transcriptase (MMLV-RT; Promega), with Oligo dT at 42° C. for 1 hr in a 20 μL reaction. Primers for genes of interest (listed in Table 2) were identified using Primer Express software (Applied Biosystems). All primers were based on the sequence of the corresponding human mRNA and were designed to amplify across at least one exon/intron junction. qRT-PCR was performed on diluted cDNA samples with SYBR® Green PCR Master Mix (Applied Biosystems) using the 7900 Real Time PCR system (Applied Biosystems) under universal cycling conditions (95° C. for 10 min; 40 cycles of 95° C. for 15 sec; then 60° C. for 1 min). All results were normalized relative to a Cyclophilin B expression control.
Periodicity Analysis: Periodicity of the circadian data obtained by qRT-PCR was tested with Time Series Analysis-Single Cosinor v. 6.0 software (Expert Soft Technologie). […] Model was also tested for validity at the 0.950 probability level (ANOVA).

[3] = system: adipocyte-differentiated human adipose stem cells; test: Effect of GSK3B inhibitor on dexamethasone-induced circadian gene expression profiles of human ASCs (qRT-PCR); assay type: cell-based; settings: 30 μM in serum-free media after 2 hr 1 μM dexamethasone, FIG. 12
Method: Treatment of human adipose derived stem cells with dexamethasone was shown above to induce a circadian rhythm in vitro, and studies were conducted to see if this induction would be blocked by the addition of a glycogen synthase kinase 3 beta inhibitor. Confluent cultures of human ASCs were induced by exposure to 1 micromolar dexamethasone for a period of 2 hr. The medium was changed to either serum-free media (SF), or serum-free media with 30 μM SB415286 (SB415, an inhibitor of glycogen synthase kinase 3 beta). Individual cultures were harvested for total RNA at the indicated times and used for qRT-PCR analysis of gene expression of Bmal1, Per3, and Rev-erbα, and normalized relative to the corresponding Cyclophilin B levels.

bipolar patients = settings: A. Fagiolini et al., 2002, 2003; cited from earlier work
[4] = adipocyte-differentiated vs undifferentiated ASCs
[5] = 1 μM for 2 hr, then serum free medium, four donors, FIG. 8B
[6] = undifferentiated ASCs, 2 hr exposure

C[C@@H]1C[C@H]2[C@@H]3CCC4=CC(=O)C=C[C@]4(C)[C@@]3(F)[C@@H](O)C[C@]2(C)[C@@]1(O)C(=O)CO [dexamethasone]
Per 3 subsequent peak, time ([1]; adipocyte-differentiated ASCs, 2 hr exposure, three donors): 20 to 24 h
Rev-erbα and Rev-erbβ phase-advance relative to the undifferentiated ASCs [1, 4]: ~8 h
Bmal1 peak levels, first peak, time following induction [2, 5]: 16 to 20 h
Bmal1 peak levels, second peak, time following induction [2, 5]: 40 h
Per1, Per3, and Cry2 expression peaks, time after induction [2, 5]: 28 to 32 h
immediate-early induction of Per1, Per3, and Cry2 mRNAs, time after induction [2, 5]: 1 to 4 h
phase shift of Bmal1 relative to Per1, Per3, and Cry2 ([2]; 1 μM for 2 hr, four donors): 8 to 12 h
Rev-erbα peak levels, time post induction ([2]; 1 μM for 2 hr, four donors, FIG. 8B): 24 h
Rev-erbα and Rev-erbβ expression zenith, time [2, 6]: 24 h

O=C1NC(=O)C(c2ccccc2[N+](=O)[O-])=C1Nc1ccc(O)c(Cl)c1 [SB415286]
effect on circadian cycle of gene expression [3]: shifted and lengthened
mRNA induction profile delayed and shifted (Bmal1, Per3, Rev-erb alpha) ([3]; vs serum-free media alone): 6 to 9 h

CN(CCOc1ccc(CC2SC(=O)NC2=O)cc1)c1ccccn1 (stereo not shown) [thiazolidinedione, rosiglitazone]
Per 3 peak expression earlier in adipocyte-differentiated than in undifferentiated ASCs [1, 4]: approximately 4 hr
Rev-erbα and Rev-erbβ phase-advance relative to the undifferentiated ASCs [1, 4]: ~8 h
Per 3 immediate early response [2, 6]: Neither 30% serum nor thiazolidinedione initiated an immediate early response
Rev-erbα and Rev-erbβ expression zenith, time [2, 6]: 24 h

[Cl-].[Li+] [lithium chloride]
weight change under pharmacotherapy (bipolar patients): gain weight rapidly and become obese
